Reference: patent publication US12528801B2 (Givaudan SA, priority 2019, dated 2026)

target: T1, hTRPM8 (Homo sapiens, UniProt Q7Z2W7); assay: Assay on TRPM8 modulators: calcium imaging (Fluo-4, Flexstation) in HEK293 cell line stably expressing hTRPM8; format: cell-based; details: HEK293 cells stably expressing hTRPM8; calcium influx, Fluo-4, Flexstation 3; sigmoidal dose-response fit
T1 construct: expressed in transfected cells
Method in brief: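 HEK293 cells stably expressing hTRPM8 were loaded with Fluo-4 AM plus probenecid and kept in HEPES buffer, pH 7.4. Calcium influx to serially diluted compounds was recorded for 120 s. Maximal activation was referenced to solvent control and 31.6 μM menthol, with EC values from sigmoidal dose-response fits.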

T1 sequence (Q7Z2W7 whole entry): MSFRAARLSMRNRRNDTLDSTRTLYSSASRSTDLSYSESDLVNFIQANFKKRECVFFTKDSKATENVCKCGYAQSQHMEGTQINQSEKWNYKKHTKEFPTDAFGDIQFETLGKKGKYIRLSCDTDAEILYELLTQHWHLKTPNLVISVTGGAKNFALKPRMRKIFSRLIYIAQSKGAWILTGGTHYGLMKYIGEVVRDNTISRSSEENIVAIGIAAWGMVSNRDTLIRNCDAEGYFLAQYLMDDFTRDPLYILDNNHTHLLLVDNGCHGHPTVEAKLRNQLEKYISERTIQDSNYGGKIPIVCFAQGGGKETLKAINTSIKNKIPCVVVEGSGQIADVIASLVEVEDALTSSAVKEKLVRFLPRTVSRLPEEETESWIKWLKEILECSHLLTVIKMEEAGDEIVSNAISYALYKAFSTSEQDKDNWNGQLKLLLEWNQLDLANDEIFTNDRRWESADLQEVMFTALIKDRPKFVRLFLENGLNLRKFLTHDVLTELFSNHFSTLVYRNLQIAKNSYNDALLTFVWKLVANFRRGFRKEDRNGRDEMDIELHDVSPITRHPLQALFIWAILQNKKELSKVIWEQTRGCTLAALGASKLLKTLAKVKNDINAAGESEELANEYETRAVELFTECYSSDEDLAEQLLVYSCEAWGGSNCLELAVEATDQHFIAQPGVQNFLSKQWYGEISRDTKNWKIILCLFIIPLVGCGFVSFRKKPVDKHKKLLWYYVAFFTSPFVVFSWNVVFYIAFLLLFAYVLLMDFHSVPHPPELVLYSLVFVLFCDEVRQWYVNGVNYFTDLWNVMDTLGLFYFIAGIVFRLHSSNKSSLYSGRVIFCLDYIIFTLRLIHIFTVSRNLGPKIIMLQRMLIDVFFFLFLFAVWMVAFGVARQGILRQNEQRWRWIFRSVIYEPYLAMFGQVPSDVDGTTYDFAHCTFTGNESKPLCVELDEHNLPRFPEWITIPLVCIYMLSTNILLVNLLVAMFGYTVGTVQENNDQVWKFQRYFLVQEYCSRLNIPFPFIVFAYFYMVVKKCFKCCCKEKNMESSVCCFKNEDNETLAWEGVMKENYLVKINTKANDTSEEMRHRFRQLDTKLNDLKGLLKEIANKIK

Row | EC50 | SMILES
1 | 1 to 35 µM | CSC(C)C(=O)N1CCCCC1c1nc(-c2ccc(CN3CCOCC3)cc2)c[nH]1 (stereo not drawn) [Compound 107, 2-(methylthio)-1-(2-(4-(4-(morpholinomethyl)phenyl)-1H-imidazol-2-yl)piperidin-1-yl)propan-1-one]
2 | < 0.05 µM | CSC(C)C(=O)N1CCCCC1c1nc(-c2ccc(C(F)(F)F)o2)c[nH]1 (stereo not drawn) [Compound 108, 2-(methylthio)-1-(2-(4-(5-(trifluoromethyl)furan-2-yl)-1H-imidazol-2-yl)piperidin-1-yl)propan-1-one]
3 | < 0.05 µM | CSC(C)C(=O)N1CCCCC1c1nc(-c2ccc(C(F)(F)F)s2)c[nH]1 (stereo not drawn) [Compound 109, 2-(methylthio)-1-(2-(4-(5-(trifluoromethyl)thiophen-2-yl)-1H-imidazol-2-yl)piperidin-1-yl)propan-1-one]
4 | < 0.05 µM | CSC(C)C(=O)N1CCCCC1c1nc(-c2csc(C)c2)c[nH]1 (stereo not drawn) [Compound 110, 2-(methylthio)-1-(2-(4-(5-methylthiophen-3-yl)-1H-imidazol-2-yl)piperidin-1-yl)propan-1-one]
5 | 0.05 to 0.3 µM | CSC(C)C(=O)N1CCCCC1c1nc(-c2cccc(C)c2)c[nH]1 (stereo not drawn) [Compound 111, 2-(methylthio)-1-(2-(4-(m-tolyl)-1H-imidazol-2-yl)piperidin-1-yl)propan-1-one]
6 | 0.05 to 0.3 µM | CSC(C)C(=O)N1CCCCC1c1nc(-c2ccccc2C)c[nH]1 (stereo not drawn) [Compound 112, 2-(methylthio)-1-(2-(4-(o-tolyl)-1H-imidazol-2-yl)piperidin-1-yl)propan-1-one]
7 | 0.3 to 1 µM | CSC(C)C(=O)N1CCCCC1c1nc(-c2cccnc2)c[nH]1 (stereo not drawn) [Compound 113, 2-(methylthio)-1-(2-(4-(pyridin-3-yl)-1H-imidazol-2-yl)piperidin-1-yl)propan-1-one]
8 | 0.3 to 1 µM | CSC(C)C(=O)N1CCCCC1c1nc(-c2ccncc2)c[nH]1 (stereo not drawn) [Compound 114, 2-(methylthio)-1-(2-(4-(pyridin-4-yl)-1H-imidazol-2-yl)piperidin-1-yl)propan-1-one]
9 | 1 to 35 µM | CSC(C)C(=O)N1CCCCC1c1nc(-c2cncnc2)c[nH]1 (stereo not drawn) [Compound 115, 2-(methylthio)-1-(2-(4-(pyrimidin-5-yl)-1H-imidazol-2-yl)piperidin-1-yl)propan-1-one]
10 | 0.3 to 1 µM | CSC(C)C(=O)N1CCCCC1c1nc(-c2ccc3nccnc3c2)c[nH]1 (stereo not drawn) [Compound 116, 2-(methylthio)-1-(2-(4-(quinoxalin-6-yl)-1H-imidazol-2-yl)piperidin-1-yl)propan-1-one]
11 | 0.05 to 0.3 µM | CSC(C)C(=O)N1CCCCC1c1nc(-c2ccsc2)c[nH]1 (stereo not drawn) [Compound 117, 2-(methylthio)-1-(2-(4-(thiophen-3-yl)-1H-imidazol-2-yl)piperidin-1-yl)propan-1-one]
12 | 0.3 to 1 µM | CSCC(=O)N1CCCCC1c1nc(-c2ccccc2)c[nH]1 (stereo not drawn) [Compound 118, 2-(methylthio)-1-(2-(4-phenyl-1H-imidazol-2-yl)piperidin-1-yl)ethan-1-one]
13 | 0.3 to 1 µM | CSC(C)C(=O)N1CCCCC1c1ncc(-c2ccccc2C(F)(F)F)[nH]1 (stereo not drawn) [Compound 119, 2-(methylthio)-1-(2-(5-(2-(trifluoromethyl)phenyl)-1H-imidazol-2-yl)piperidin-1-yl)propan-1-one]
14 | < 0.05 µM | CSC(C)C(=O)N1CCCCC1c1ncc(-c2ccc(F)c(F)c2F)[nH]1 (stereo not drawn) [Compound 120, 2-(methylthio)-1-(2-(5-(2,3,4-trifluorophenyl)-1H-imidazol-2-yl)piperidin-1-yl)propan-1-one]
15 | < 0.05 µM | CSC(C)C(=O)N1CCCCC1c1ncc(-c2cc(F)c(F)cc2F)[nH]1 (stereo not drawn) [Compound 121, 2-(methylthio)-1-(2-(5-(2,4,5-trifluorophenyl)-1H-imidazol-2-yl)piperidin-1-yl)propan-1-one]
16 | 0.05 to 0.3 µM | CSC(C)C(=O)N1CCCCC1c1ncc(-c2cccc(C(F)(F)F)c2)[nH]1 (stereo not drawn) [Compound 122, 2-(methylthio)-1-(2-(5-(3-(trifluoromethyl)phenyl)-1H-imidazol-2-yl)piperidin-1-yl)propan-1-one]
17 | < 0.05 µM | CSC(C)C(=O)N1CCCCC1c1ncc(-c2ccc(OC(F)(F)F)cc2)[nH]1 (stereo not drawn) [Compound 123, 2-(methylthio)-1-(2-(5-(4-(trifluoromethoxy)phenyl)-1H-imidazol-2-yl)piperidin-1-yl)propan-1-one]
18 | < 0.05 µM | CCCc1ccc(-c2cnc(C3CCCCN3C(=O)C(C)SC)[nH]2)cc1 (stereo not drawn) [Compound 125, 2-(methylthio)-1-(2-(5-(4-propylphenyl)-1H-imidazol-2-yl)piperidin-1-yl)propan-1-one]
19 | < 0.05 µM | C=Cc1ccc(-c2cnc(C3CCCCN3C(=O)C(C)SC)[nH]2)cc1 (stereo not drawn) [Compound 126, 2-(methylthio)-1-(2-(5-(4-vinylphenyl)-1H-imidazol-2-yl)piperidin-1-yl)propan-1-one]
20 | 0.3 to 1 µM | CSC(C)C(=O)N1CCCCC1c1nnc(-c2ccc(C)cc2)o1 (stereo not drawn) [Compound 128, 2-(methylthio)-1-(2-(5-(p-tolyl)-1,3,4-oxadiazol-2-yl)piperidin-1-yl)propan-1-one]
21 | < 0.05 µM | CSC(C)C(=O)N1CCCCCC1c1ncc(-c2ccc(C)cc2)[nH]1 (stereo not drawn) [Compound 129, 2-(methylthio)-1-(2-(5-(p-tolyl)-1H-imidazol-2-yl)azepan-1-yl)propan-1-one]
22 | < 0.05 µM | CSC(C)C(=O)N1CCCCC1c1nnc(-c2ccc(C)cc2)[nH]1 (stereo not drawn) [Compound 131, 2-(methylthio)-1-(2-(5-(p-tolyl)-4H-1,2,4-triazol-3-yl)piperidin-1-yl)propan-1-one]
23 | 0.05 to 0.3 µM | CSC(C)C(=O)N1CCCCC1c1cc(-c2ccc(C)cc2)on1 (stereo not drawn) [Compound 132, 2-(methylthio)-1-(2-(5-(p-toly)isoxazol-3-yl)piperidin-1-yl)propan-1-one]
24 | < 0.05 µM | CSC(C)C(=O)N1CCCCC1c1ncc(-c2ccc(C)cc2)o1 (stereo not drawn) [Compound 133, 2-(methylthio)-1-(2-(5-(p-tolyl)oxazol-2-yl)piperidin-1-yl)propan-1-one]
25 | < 0.05 µM | CSC(C)C(=O)N1CCCCC1c1ncc(-c2ccc(C)cc2)s1 (stereo not drawn) [Compound 134, 2-(methylthio)-1-(2-(5-(p-tolyl)thiazol-2-yl)piperidin-1-yl)propan-1-one]
26 | 1 to 35 µM | CSC(C)C(=O)N1CCC[C@@H]1c1ncc(-c2ccccc2)[nH]1 (stereo partly drawn) [Compound 136, 2-(methylthio)-1-((R)-2-(5-phenyl-1H-imidazol-2-yl)pyrrolidin-1-yl)propan-1-one]
27 | 0.05 to 0.3 µM | CSC(C)C(=O)N1CCCCC1c1nnc(-c2ccccc2)[nH]1 (stereo not drawn) [Compound 137, 2-(methylthio)-1-(2-(5-phenyl-4H-1,2,4-triazol-3-yl)piperidin-1-yl)propan-1-one]
28 | 0.3 to 1 µM | CSC(C)C(=O)N1CCCCC1c1ncc(-c2ccccc2)o1 (stereo not drawn) [Compound 138, 2-(methylthio)-1-(2-(5-phenyloxazol-2-yl)piperidin-1-yl)propan-1-one]
29 | 0.05 to 0.3 µM | CSC(C)C(=O)N1CSCC1c1ncc(-c2ccc(C)cc2)[nH]1 (stereo not drawn) [Compound 139, 2-(methylthio)-1-(4-(5-(p-tolyl)-1H-imidazol-2-yl)thiazolidin-3-yl)propan-1-one]
30 | < 0.05 µM | C=C(C)C(C)(C)C(=O)N1CCCCC1c1ncc(-c2ccc(C)cc2)[nH]1 (stereo not drawn) [Compound 140, 2,2,3-trimethyl-1-(2-(5-(p-tolyl)-1H-imidazol-2-yl)piperidin-1-yl)but-3-en-1-one]
